# Measurements taken from US8846737B2, “Compound” (Sterix Limited, priority 2009, dated 2014).
# Tests used:
# Aromatase = target: T1, Aromatase (Homo sapiens, UniProt P11511); assay: Aromatase activity in JEG3 cells (Protocol 6); format: cell-based; settings: intact JEG3 cells, [1β-3H]androstenedione, 30 min
# T1 construct: host or cells: JEG3 choriocarcinoma cells, intact monolayers
# T1 sequence (P11511 1-503): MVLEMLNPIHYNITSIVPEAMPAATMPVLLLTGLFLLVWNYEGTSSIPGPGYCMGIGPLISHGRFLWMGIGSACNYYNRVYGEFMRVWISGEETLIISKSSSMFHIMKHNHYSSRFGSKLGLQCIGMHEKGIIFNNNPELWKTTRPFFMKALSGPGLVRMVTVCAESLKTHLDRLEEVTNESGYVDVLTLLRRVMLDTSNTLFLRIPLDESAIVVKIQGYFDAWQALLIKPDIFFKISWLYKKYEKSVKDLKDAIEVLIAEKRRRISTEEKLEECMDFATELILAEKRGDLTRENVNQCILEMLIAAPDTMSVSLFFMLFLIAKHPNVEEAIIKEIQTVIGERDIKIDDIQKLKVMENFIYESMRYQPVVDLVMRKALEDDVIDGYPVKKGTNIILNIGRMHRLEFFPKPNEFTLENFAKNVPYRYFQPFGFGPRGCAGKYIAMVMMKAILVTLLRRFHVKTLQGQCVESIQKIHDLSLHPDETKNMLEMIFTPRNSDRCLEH
# Protocol: Assay for Determining Aromatase Activity Using JEG3 Cells
# Aromatase activity is measured in JEG3 choriocarcinoma cells, obtained from the ATCC. […] During the aromatase reaction, ^3H2O is liberated which can be quantified using a liquid scintillation spectrometer. […] The number of cell nuclei per flask is determined using a Coulter Counter after treating the cell monolayers with Zaponin.
# Aromatase inhibition was measured in accordance with Protocol 6.
# Steroid sulphatase (STS) = target: T2, Steroid sulphatase (STS) (Homo sapiens, UniProt P08842); assay: Inhibition of steroid sulphatase activity in JEG3 cells (Protocol 1); format: cell-based; settings: intact JEG3 cells, [6,7-3H]oestrone-3-sulphate, 3-4 hours
# T2 construct: host or cells: JEG3 choriocarcinoma cells, intact monolayers
# T2 sequence (P08842 22-583): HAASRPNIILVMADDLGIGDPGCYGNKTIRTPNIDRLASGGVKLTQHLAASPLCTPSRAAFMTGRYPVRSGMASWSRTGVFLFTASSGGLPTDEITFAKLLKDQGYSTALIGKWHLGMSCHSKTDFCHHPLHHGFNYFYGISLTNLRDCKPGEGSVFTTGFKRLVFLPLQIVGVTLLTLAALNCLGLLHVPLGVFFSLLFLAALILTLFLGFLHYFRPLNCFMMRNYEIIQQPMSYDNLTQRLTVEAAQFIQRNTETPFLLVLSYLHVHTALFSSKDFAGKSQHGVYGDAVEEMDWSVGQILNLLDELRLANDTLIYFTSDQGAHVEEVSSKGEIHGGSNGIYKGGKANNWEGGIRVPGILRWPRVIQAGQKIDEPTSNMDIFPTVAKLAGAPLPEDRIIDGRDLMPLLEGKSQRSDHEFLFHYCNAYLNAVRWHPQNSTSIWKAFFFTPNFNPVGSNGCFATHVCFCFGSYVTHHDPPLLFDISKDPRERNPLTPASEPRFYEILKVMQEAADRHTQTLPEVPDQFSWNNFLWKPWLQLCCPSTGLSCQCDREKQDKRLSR
# Protocol: Assay for Determining STS Activity Using Cancer Cells
# Inhibition of Steroid Sulphatase Activity in JEG3 Cells
# Steroid sulphatase activity is measured in vitro using intact JEG3 choriocarcinoma cells.
# Cells are maintained in Minimal Essential Medium (MEM) containing 20 mM HEPES, 5% foetal bovine serum, 2 mM glutamine, non-essential amino acids and 0.075% sodium bicarbonate. Up to 30 replicate 25 cm^2 tissue culture flasks are seeded with approximately 1×10^5 cells/flask using the above medium Cells are grown to 80% confluency and the medium is changed every third day.
# Intact monolayers of JEG3 cells in triplicate 25 cm^2 tissue culture flasks are washed with Earle's Balanced Salt Solution (EBSS) and incubated for 3-4 hours at 37° C. with 5 pmol (7×10^5 dpm) [6, 7-3H]oestrone-3-sulphate (specific activity 60 Ci/mmol) in serum-free MEM (2.5 ml) together with oestrone-3-sulphamate (11 concentrations: 0; 1fM; 0.01 pM; 0.1 pM, 1 pM; 0.01 nM; 0.1 nM; 0.01 mM; 0.1 mM; 1 mM). After incubation each flask is cooled and the medium (1 ml) is pipetted into separate tubes containing [14C]oestrone (7×10^3 dpm) (specific activity 97 Ci/mmol). The mixture is shaken thoroughly for 30 seconds with toluene (5 ml) Experiments have shown that >90% [14C]oestrone and <0 1% [3H]oestrone-3-sulphate is removed from the aqueous phase by this treatment A portion (2 ml) of the organic phase is removed, evaporated and the 3H and 14C content of the residue determined by scintillation spectrometry The mass of oestrone-3-sulphate hydrolysed was calculated from the 3H counts obtained (corrected for the volumes of the medium and organic phase used, and for recovery of [14C] oestrone added) and the specific activity of the substrate Each batch of experiments includes incubations of microsomes prepared from a sulphatase-positive human placenta (positive control) and flasks without cells (to assess apparent non-enzymatic hydrolysis of the substrate). The number of cell nuclei per flask is determined using a Coulter Counter after treating the cell monolayers with Zaponin One flask in each batch is used to assess cell membrane status and viability using the Trypan Blue exclusion method (Phillips, H J. (1973) In: Tissue culture and applications, [eds: Kruse, D. F. & Patterson, M. K]; pp 406-408; Academic Press, New York)
# Results for steroid sulphatase activity are expressed as the mean±1S.D. of the total product (oestrone+oestradiol) formed during the incubation period (3-4 hours) calculated for […] and, for values showing statistical significance, as a percentage reduction (inhibition) over incubations containing no oestrone-3-sulphamate. Unpaired Student's t-test was used to test the statistical significance of results
# Sterioid sulphatase inhibition was measured in accordance with Protocol 1
# rats = settings: cited from earlier work
# steroid sulphatase = target: T3, steroid sulphatase (Homo sapiens, UniProt P08842); settings: compared with EMATE; cited from earlier work
# T3 sequence (P08842 22-583): T2 sequence (P08842 22-583)
# E1-STS = target: T4, E1-STS (Homo sapiens, UniProt P08842); settings: intact MCF-7 cells, at 0.1 nM; cited from earlier work
# T4 construct: host or cells: intact MCF-7 cells (endogenous enzyme)
# T4 sequence (P08842 22-583): T2 sequence (P08842 22-583)
Structure (SMILES),IC50 (Aromatase) [nM],IC50 (Steroid sulphatase (STS)) [nM],also measured
N#Cc1ccc(N(Cc2ccc(OS(N)(=O)=O)cc2)n2cnnc2)cc1-c1ccncc1 [Compound 51],36 ± 1.7,198 ± 37,–
N#Cc1ccc(N(Cc2ccc(OS(N)(=O)=O)cc2)n2cnnc2)cc1Oc1ccccc1 [Compound 57],12.5 ± 2.3,62 ± 13,–
N#Cc1ccc(N(Cc2ccc(OS(N)(=O)=O)cc2)n2cnnc2)cc1-c1ccccc1 [Compound 3],0.25 ± 0.03,3 ± 0.5,–
N#Cc1ccc(N(Cc2ccc(OS(N)(=O)=O)cc2)n2ccnc2)cc1-c1ccccc1 [Compound 32],< 0.1,9.7 ± 4.2,–
COc1ccc(Cc2cc(N(Cc3ccc(OS(N)(=O)=O)cc3)n3cnnc3)ccc2C#N)cc1 [Compound 45],40.7 ± 4.5,292 ± 80,–
N#Cc1ccc(N(Cc2ccc(OS(N)(=O)=O)cc2)n2cnnc2)cc1N1CCCCC1 [Compound 17],3.4 ± 0.2,43 ± 6,–
"N#Cc1ccc(N(Cc2ccc(Br)cc2)n2cnnc2)cc1-c1ccc(OS(N)(=O)=O)cc1 [CAB06059, 5′-((4-Bromobenzyl)(4H-1,2,4-triazol-4-yl)amino)-2′-cyanobiphenyl-4-yl sulfamate]",0.05 ± 0.01,2900 ± 100,–
N#Cc1ccc(N(Cc2ccc(OS(N)(=O)=O)cc2)n2cnnc2)cc1CN1CCCC1 [Compound 41],97 ± 2.7,4360 ± 554,–
CN1CCN(c2cc(N(Cc3ccc(OS(N)(=O)=O)cc3)n3cnnc3)ccc2C#N)CC1 [Compound 23],89 ± 10.2,2800 ± 985,–
N#Cc1ccc(N(Cc2ccc(OS(N)(=O)=O)c(F)c2F)n2cnnc2)cc1-c1ccccc1 [Compound 34],0.8 ± 0.3,2.8 ± 0.9,–
"N#Cc1ccc(N(Cc2c(F)cc(OS(N)(=O)=O)cc2F)n2cnnc2)cc1-c1ccccc1 [PMW04153, 4-(((6-Cyanobiphenyl-3-yl)(4H-1,2,4-triazol-4-yl)amino)methyl)-3,5-difluorophenyl sulfamate]",< 0.1,0.12 ± 0.02,–
COc1cc2c(cc1OS(N)(=O)=O)CC[C@@H]1[C@@H]2CC[C@]2(C)C(=O)CC[C@@H]12 [2-methoxyoestrone-3-O-sulphamate],–,–,"oestrogenicity (rats; rat, in vivo): devoid of oestrogenicity; potency as steroid sulphatase inhibitor (steroid sulphatase): equipotent with EMATE"
N#Cc1ccc(N(Cc2ccc(OS(N)(=O)=O)cc2)n2cnnc2)cc1N1CCCCCC1=O [Compound 11],850 ± 104,1300 ± 265,–
"CC12CCC3c4ccc(OS(N)(=O)=O)cc4CCC3C1CCC2=O (stereo not drawn) [EMATE, oestrone-3-sulphamate]",–,–,"oral uterotrophic activity relative to estradiol (rats; rats, oral): 100 times; inhibition of E1-STS activity (E1-STS): more than 99%"
N#Cc1ccc(N(Cc2ccc(OS(N)(=O)=O)cc2)n2cnnc2)cc1N1CCCC1 [Compound 15],< 0.1,60 ± 7,–
